Measured values taken from article PMC7531004, “Discovery of gramicidin A analogues with altered activities by multidimensional screening of a one-bead-one-compound library” (Nature Communications, 2020).
Where a SMILES comes first, the peptide text is derived from it. [ ]: non-standard residue; d: D form. The star is where a group is joined. NHCH2CH2OH = OCCN*; For = O=C*

Assays:
[1] = system: P388 mouse leukemia cells; conditions: 92 h
Summary of the method: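 First, library peptide stocks are diluted 250-fold in RPMI1640 with 10% heat-inactivated FBS. Next, they are mixed with P388 cells to give 1 × 10^4 cells/mL and incubated 92 h at 37 °C, 5% CO2. Finally, viability (%) is scored by WST-1 absorbance at 415 nm.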

[2] = system: Streptococcus pyogenes SSI-9; experiment: Antibacterial activity assay of bead-derived peptides (three concentrations); format: cell-based; design: key: +++: inhibition by the 640-fold diluted peptide solution; ++: inhibition by the 160-fold diluted solution; +: inhibition by the 40-fold diluted solution; -: no inhibition; conditions: S. pyogenes, bead-derived peptide solution, three concentrations
Summary of the method: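 Bead-derived library peptide stocks in DMSO were tested undiluted and after 4- and 16-fold DMSO dilution against S. pyogenes SSI-9 (2 × 10^5 CFU/well) in cation-adjusted Mueller Hinton Broth with 5% laked horse blood. After 18 h at 37 °C, wells were scored for precipitation of grown cells.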

[3] = H+/Na+ transport assay of bead-derived peptides (one-point); format: biochemical; design: key: relative activity; mean of two control wells = 1.00; conditions: bead-derived peptide solution, EYPC/EYPG LUVs;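 further: relative to parent gramicidin A activity set to 1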
Summary of the method: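 H+/Na+ transport is monitored through pyranine fluorescence in freshly extruded LUVs after a 30-min room-temperature vortex with each library peptide at a single concentration. Signals are normalized to detergent (Triton X-100) and untreated controls.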

| Compound | cell viability/% [1] [%] | antibacterial activity [2] | H+/Na+ transport activity normalized against the value of 1 (1.00) [3] |
| --- | --- | --- | --- |
| CC(C)C[C@@H](NC(=O)[C@H](Cc1c[nH]c2ccccc12)NC(=O)[C@H](NC(=O)[C@H](Cc1c[nH]c2ccccc12)NC(=O)[C@H](NC(=O)[C@H](Cc1c[nH]c2ccccc12)NC(=O)[C@@H](CC(C)C)NC(=O)[C@@H](NC(=O)[C@H](NC(=O)[C@H](C)NC(=O)[C@H](NC(=O)[C@H](C)NC(=O)CNC(=O)[C@@H](NC=O)C(C)C)C(C)C)C(C)C)C(C)C)C(C)C)[C@H](C)O)C(=O)N[C@@H](Cc1c[nH]c2ccccc12)C(=O)NCCO [compound 2580] (For-VGA[dV]A[dV]V[dL]W[dV]W[dT]W[dL]W-NHCH2CH2OH) | 100.0 | - | 1.00 |
| CC(C)C[C@@H](NC(=O)[C@H](C)NC(=O)[C@H](NC(=O)[C@H](C)NC(=O)CNC(=O)[C@@H](NC=O)C(C)C)C(C)C)C(=O)N[C@H](C(=O)N[C@H](CC(C)C)C(=O)N[C@@H](Cc1c[nH]c2ccccc12)C(=O)N[C@@H](C(=O)N[C@@H](Cc1c[nH]c2ccccc12)C(=O)N[C@@H](C(=O)N[C@@H](Cc1c[nH]c2ccccc12)C(=O)N[C@@H](C(=O)N[C@@H](Cc1c[nH]c2ccccc12)C(=O)NCCO)[C@H](C)O)C(C)C)C(C)C)C(C)C [compound 13147] (For-VGA[dV]A[dL]V[dL]W[dV]W[dV]W[dT]W-NHCH2CH2OH) | 94.4 | - | 1.09 |
| CNC(=O)C[C@@H](NC(=O)[C@H](Cc1c[nH]c2ccccc12)NC(=O)[C@@H](CC(C)C)NC(=O)[C@H](Cc1c[nH]c2ccccc12)NC(=O)[C@H](NC(=O)[C@H](Cc1c[nH]c2ccccc12)NC(=O)[C@@H](CC(C)C)NC(=O)[C@@H](NC(=O)[C@H](NC(=O)[C@H](C)NC(=O)[C@@H](CC(C)C)NC(=O)[C@H](C)NC(=O)CNC(=O)[C@@H](NC=O)C(C)C)C(C)C)C(C)C)C(C)C)C(=O)N[C@@H](Cc1c[nH]c2ccccc12)C(=O)NCCO [compound 5302] (For-VGA[dL]A[dV]V[dL]W[dV]W[dL]W[dD](NHMe)W-NHCH2CH2OH) | 100.0 | - | 1.37 |
| CC(C)C[C@@H](NC(=O)[C@H](C)NC(=O)[C@H](NC(=O)[C@H](C)NC(=O)CNC(=O)[C@@H](NC=O)C(C)C)C(C)C)C(=O)N[C@H](C(=O)N[C@@H](C(=O)N[C@@H](Cc1c[nH]c2ccccc12)C(=O)N[C@@H](C(=O)N[C@@H](Cc1c[nH]c2ccccc12)C(=O)N[C@H](CC(C)C)C(=O)N[C@@H](Cc1c[nH]c2ccccc12)C(=O)N[C@H](CC(C)C)C(=O)N[C@@H](Cc1c[nH]c2ccccc12)C(=O)NCCO)[C@H](C)O)[C@H](C)O)C(C)C [compound 8374] (For-VGA[dV]A[dL]V[dT]W[dT]W[dL]W[dL]W-NHCH2CH2OH) | 66.4 | - | 1.02 |
| CC(C)C[C@@H](NC(=O)[C@H](C)NC(=O)[C@H](NC(=O)[C@H](C)NC(=O)CNC(=O)[C@@H](NC=O)C(C)C)[C@H](C)O)C(=O)N[C@H](C(=O)N[C@H](CC(C)C)C(=O)N[C@@H](Cc1c[nH]c2ccccc12)C(=O)N[C@@H](C(=O)N[C@@H](Cc1c[nH]c2ccccc12)C(=O)N[C@H](CC(C)C)C(=O)N[C@@H](Cc1c[nH]c2ccccc12)C(=O)N[C@@H](C(=O)N[C@@H](Cc1c[nH]c2ccccc12)C(=O)NCCO)C(C)C)[C@H](C)O)C(C)C [compound 3437] (For-VGA[dT]A[dL]V[dL]W[dT]W[dL]W[dV]W-NHCH2CH2OH) | 100.0 | - | 1.01 |
| CC(C)C[C@@H](NC(=O)[C@H](C)NC(=O)[C@H](NC(=O)[C@H](C)NC(=O)CNC(=O)[C@@H](NC=O)C(C)C)C(C)C)C(=O)N[C@H](C(=O)N[C@@H](C(=O)N[C@@H](Cc1c[nH]c2ccccc12)C(=O)N[C@@H](C(=O)N[C@@H](Cc1c[nH]c2ccccc12)C(=O)N[C@@H](C(=O)N[C@@H](Cc1c[nH]c2ccccc12)C(=O)N[C@@H](C(=O)N[C@@H](Cc1c[nH]c2ccccc12)C(=O)NCCO)C(C)C)C(C)C)C(C)C)C(C)C)C(C)C [compound 8909] (For-VGA[dV]A[dL]V[dV]W[dV]W[dV]W[dV]W-NHCH2CH2OH) | 85.9 | + | 1.04 |
| CC(C)C[C@@H](NC(=O)[C@H](C)NC(=O)[C@H](NC(=O)[C@H](C)NC(=O)CNC(=O)[C@@H](NC=O)C(C)C)C(C)C)C(=O)N[C@H](C(=O)N[C@@H](C(=O)N[C@@H](Cc1c[nH]c2ccccc12)C(=O)N[C@@H](C(=O)N[C@@H](Cc1c[nH]c2ccccc12)C(=O)N[C@H](CC(C)C)C(=O)N[C@@H](Cc1c[nH]c2ccccc12)C(=O)N[C@@H](C(=O)N[C@@H](Cc1c[nH]c2ccccc12)C(=O)NCCO)[C@H](C)O)C(C)C)C(C)C)C(C)C [compound 7393] (For-VGA[dV]A[dL]V[dV]W[dV]W[dL]W[dT]W-NHCH2CH2OH) | 100.0 | - | 1.07 |
| CC(C)C[C@@H](NC(=O)[C@H](C)NC(=O)CNC(=O)[C@@H](NC=O)C(C)C)C(=O)N[C@@H](C)C(=O)N[C@@H](C(=O)N[C@H](C(=O)N[C@@H](C(=O)N[C@@H](Cc1c[nH]c2ccccc12)C(=O)N[C@@H](C(=O)N[C@@H](Cc1c[nH]c2ccccc12)C(=O)N[C@@H](C(=O)N[C@@H](Cc1c[nH]c2ccccc12)C(=O)N[C@@H](C(=O)N[C@@H](Cc1c[nH]c2ccccc12)C(=O)NCCO)C(C)C)C(C)C)C(C)C)C(C)C)C(C)C)C(C)C [compound 12092] (For-VGA[dL]A[dV]V[dV]W[dV]W[dV]W[dV]W-NHCH2CH2OH) | 100.0 | + | 1.14 |
| CC(C)C[C@@H](NC(=O)[C@H](C)NC(=O)CNC(=O)[C@@H](NC=O)C(C)C)C(=O)N[C@@H](C)C(=O)N[C@H](CC(C)C)C(=O)N[C@H](C(=O)N[C@H](CC(C)C)C(=O)N[C@@H](Cc1c[nH]c2ccccc12)C(=O)N[C@@H](C(=O)N[C@@H](Cc1c[nH]c2ccccc12)C(=O)N[C@@H](C(=O)N[C@@H](Cc1c[nH]c2ccccc12)C(=O)N[C@@H](C(=O)N[C@@H](Cc1c[nH]c2ccccc12)C(=O)NCCO)C(C)C)C(C)C)[C@H](C)O)C(C)C [compound 5679] (For-VGA[dL]A[dL]V[dL]W[dT]W[dV]W[dV]W-NHCH2CH2OH) | 90.5 | - | 1.06 |
| CNC(=O)C[C@@H](NC(=O)[C@H](Cc1c[nH]c2ccccc12)NC(=O)[C@@H](CC(C)C)NC(=O)[C@H](Cc1c[nH]c2ccccc12)NC(=O)[C@H](NC(=O)[C@H](Cc1c[nH]c2ccccc12)NC(=O)[C@H](NC(=O)[C@@H](NC(=O)[C@@H](CC(C)C)NC(=O)[C@H](C)NC(=O)[C@H](NC(=O)[C@H](C)NC(=O)CNC(=O)[C@@H](NC=O)C(C)C)C(C)C)C(C)C)C(C)C)C(C)C)C(=O)N[C@@H](Cc1c[nH]c2ccccc12)C(=O)NCCO [compound 13317] (For-VGA[dV]A[dL]V[dV]W[dV]W[dL]W[dD](NHMe)W-NHCH2CH2OH) | 100.0 | - | 1.04 |
| CC(C)C[C@@H](NC(=O)[C@H](C)NC(=O)CNC(=O)[C@@H](NC=O)C(C)C)C(=O)N[C@@H](C)C(=O)N[C@@H](C(=O)N[C@H](C(=O)N[C@@H](C(=O)N[C@@H](Cc1c[nH]c2ccccc12)C(=O)N[C@@H](C(=O)N[C@@H](Cc1c[nH]c2ccccc12)C(=O)N[C@H](CC(C)C)C(=O)N[C@@H](Cc1c[nH]c2ccccc12)C(=O)N[C@H](CC(C)C)C(=O)N[C@@H](Cc1c[nH]c2ccccc12)C(=O)NCCO)C(C)C)C(C)C)C(C)C)C(C)C [compound 2082] (For-VGA[dL]A[dV]V[dV]W[dV]W[dL]W[dL]W-NHCH2CH2OH) | 100.0 | + | 1.16 |
| CC(C)C[C@@H](NC(=O)[C@H](C)NC(=O)[C@H](NC(=O)[C@H](C)NC(=O)CNC(=O)[C@@H](NC=O)C(C)C)[C@H](C)O)C(=O)N[C@H](C(=O)N[C@H](CC(C)C)C(=O)N[C@@H](Cc1c[nH]c2ccccc12)C(=O)N[C@H](CC(C)C)C(=O)N[C@@H](Cc1c[nH]c2ccccc12)C(=O)N[C@H](CC(C)C)C(=O)N[C@@H](Cc1c[nH]c2ccccc12)C(=O)N[C@H](CC(C)C)C(=O)N[C@@H](Cc1c[nH]c2ccccc12)C(=O)NCCO)C(C)C [compound 7905] (For-VGA[dT]A[dL]V[dL]W[dL]W[dL]W[dL]W-NHCH2CH2OH) | 100.0 | - | 1.10 |
| CC(C)C[C@@H](NC(=O)[C@H](Cc1c[nH]c2ccccc12)NC(=O)[C@H](NC(=O)[C@H](Cc1c[nH]c2ccccc12)NC(=O)[C@H](NC(=O)[C@H](Cc1c[nH]c2ccccc12)NC(=O)[C@H](NC(=O)[C@@H](NC(=O)[C@H](NC(=O)[C@H](C)NC(=O)[C@H](NC(=O)[C@H](C)NC(=O)CNC(=O)[C@@H](NC=O)C(C)C)C(C)C)C(C)C)C(C)C)C(C)C)C(C)C)C(C)C)C(=O)N[C@@H](Cc1c[nH]c2ccccc12)C(=O)NCCO [compound 10699] (For-VGA[dV]A[dV]V[dV]W[dV]W[dV]W[dL]W-NHCH2CH2OH) | 100.0 | - | 1.09 |
